Reference: patent publication US11591341B2 (ALIGOS THERAPEUTICS, INC., priority 2019, dated 2023)

Test system: HBV
Assay: HBV-DNA Antiviral Assay Using HepG2.117 Cells (intracellular HBV DNA by qPCR)
Assay type: cell-based, hepatitis B virus (genotype D)
Conditions: Hepatitis B virus, HepG2.117
Method in brief: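 Endpoint: qPCR copy number of intracellular HBV DNA after 3-day compound exposure, with inhibition set relative to the 2% DMSO control. The cells were doxycycline-free HepG2.117 carrying a Tet-off genotype D genome, dosed at nine 4-fold dilutions. A duplicate plate gave ATP-based viability (CC50).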

Compound	EC50 [nM]
COc1ccc(-n2c(C(=O)NCc3ccc(OC(F)F)cc3)c3n(c2=O)CCN(C(=O)c2ccc(Br)c(Cl)c2)C3)cc1 [Example 148, 7-(4-bromo-3-chloro-benzoyl)-N-[[4-(difluoromethoxy)phenyl]methyl]-2-(4-methoxyphenyl)-3-oxo-6,8-dihydro-5H-imidazo[1,5-a]pyrazine-1-carboxamide]	100 to 500
COc1ccc(-n2c(C(=O)NCc3cccc(C(F)(F)F)c3)c3n(c2=O)CCN(C(=O)c2ccc(Br)c(Cl)c2)C3)cc1 [Example 152, 7-(4-bromo-3-chloro-benzoyl)-2-(4-methoxyphenyl)-3-oxo-N-[[3-(trifluoromethyl)phenyl]methyl]-6,8-dihydro-5H-imidazo[1,5-a]pyrazine-1-carboxamide]	100 to 500
COc1ccc(-n2c(C(=O)NCc3cc(OC)cc(OC)c3)c3n(c2=O)CCN(C(=O)c2ccc(Br)c(Cl)c2)C3)cc1 [Example 153, 7-(4-bromo-3-chloro-benzoyl)-N-[(3,5-dimethoxyphenyl)methyl]-2-(4-methoxyphenyl)-3-oxo-6,8-dihydro-5H-imidazo[1,5-a]pyrazine-1-carboxamide]	100 to 500
COc1ccc(-n2c(C(=O)NCc3ccccc3C#N)c3n(c2=O)CCN(C(=O)c2ccc(Br)c(Cl)c2)C3)cc1 [Example 154, 7-(4-bromo-3-chloro-benzoyl)-N-[(2-cyanophenyl)methyl]-2-(4-methoxyphenyl)-3-oxo-6,8-dihydro-5H-imidazo[1,5-a]pyrazine-1-carboxamide]	100 to 500
COc1ccc(-n2c(C(=O)NCc3cccc(OC)c3C)c3n(c2=O)CCN(C(=O)c2ccc(Br)c(Cl)c2)C3)cc1 [Example 155, 7-(4-bromo-3-chloro-benzoyl)-N-[(3-methoxy-2-methyl-phenyl)methyl]-2-(4-methoxyphenyl)-3-oxo-6,8-dihydro-5H-imidazo[1,5-a]pyrazine-1-carboxamide]	100 to 500
COc1ccc(-n2c(C(=O)NCc3ccc(OC(C)C)cc3)c3n(c2=O)CCN(C(=O)c2ccc(Br)c(Cl)c2)C3)cc1 [Example 156, 7-(4-bromo-3-chloro-benzoyl)-N-[(4-isopropoxyphenyl)methyl]-2-(4-methoxyphenyl)-3-oxo-6,8-dihydro-5H-imidazo[1,5-a]pyrazine-1-carboxamide]	100 to 500
COc1ccc(-n2c(C(=O)NCc3ncccn3)c3n(c2=O)CCN(C(=O)c2ccc(Br)c(Cl)c2)C3)cc1 [Example 157, 7-(4-bromo-3-chloro-benzoyl)-2-(4-methoxyphenyl)-3-oxo-N-(pyrimidin-2-ylmethyl)-6,8-dihydro-5H-imidazo[1,5-a]pyrazine-1-carboxamide]	> 5000
COc1ccc(-n2c(C(=O)NCc3ccc(OC(F)(F)F)cc3)c3n(c2=O)CCN(C(=O)c2ccc(Br)c(Cl)c2)C3)cc1 [Example 158, 7-(4-bromo-3-chloro-benzoyl)-2-(4-methoxyphenyl)-3-oxo-N-[[4-(trifluoromethoxy)phenyl]methyl]-6,8-dihydro-5H-imidazo[1,5-a]pyrazine-1-carboxamide]	100 to 500
COc1ccc(CNC(=O)c2c3n(c(=O)n2-c2ccc(C#N)cc2)CCN(C(=O)c2ccc(Br)c(Cl)c2)C3)c(C)c1 [Example 163, 7-(4-bromo-3-chloro-benzoyl)-2-(4-cyanophenyl)-N-[(4-methoxy-2-methyl-phenyl)methyl]-3-oxo-6,8-dihydro-5H-imidazo[1,5-a]pyrazine-1-carboxamide]	500 to 5000
COc1ccc(CNC(=O)c2c3n(c(=O)n2-c2ccc(C#N)cc2)CCN(C(=O)c2ccc(Br)c(Cl)c2)C3)c(F)c1 [Example 164, 7-(4-bromo-3-chloro-benzoyl)-2-(4-cyanophenyl)-N-[(2-fluoro-4-methoxy-phenyl)methyl]-3-oxo-6,8-dihydro-5H-imidazo[1,5-a]pyrazine-1-carboxamide]	500 to 5000
COC(=O)c1cccc(CNC(=O)c2c3n(c(=O)n2-c2ccc(OC)cc2)CCN(C(=O)c2ccc(Br)c(Cl)c2)C3)c1 [Example 165, methyl 3-[[[7-(4-bromo-3-chloro-benzoyl)-2-(4-methoxyphenyl)-3-oxo-6,8-dihydro-5H-imidazo[1,5-a]pyrazine-1-carbonyl]amino]methyl]benzoate]	100 to 500
COc1ccc(-n2c(C(=O)NCc3cccc4cccnc34)c3n(c2=O)CCN(C(=O)c2ccc(Br)c(Cl)c2)C3)cc1 [Example 166, 7-(4-bromo-3-chloro-benzoyl)-2-(4-methoxyphenyl)-3-oxo-N-(8-quinolylmethyl)-6,8-dihydro-5H-imidazo[1,5-a]pyrazine-1-carboxamide]	100 to 500
COc1ccc(-n2c(C(=O)NCc3ccccc3-n3cccn3)c3n(c2=O)CCN(C(=O)c2ccc(Br)c(Cl)c2)C3)cc1 [Example 167, 7-(4-bromo-3-chloro-benzoyl)-2-(4-methoxyphenyl)-3-oxo-N-[(2-pyrazol-1-ylphenyl)methyl]-6,8-dihydro-5H-imidazo[1,5-a]pyrazine-1-carboxamide]	< 100
COc1ccc(-n2c(C(=O)NCc3cnccn3)c3n(c2=O)CCN(C(=O)c2ccc(Br)c(Cl)c2)C3)cc1 [Example 171, 7-(4-bromo-3-chloro-benzoyl)-2-(4-methoxyphenyl)-3-oxo-N-(pyrazin-2-ylmethyl)-6,8-dihydro-5H-imidazo[1,5-a]pyrazine-1-carboxamide]	> 5000
COc1ccc(-n2c(C(=O)NCc3ccc(C#N)cc3)c3n(c2=O)CCN(C(=O)c2ccc(Br)c(Cl)c2)C3)cc1 [Example 180, 7-(4-bromo-3-chloro-benzoyl)-N-[(4-cyanophenyl)methyl]-2-(4-methoxyphenyl)-3-oxo-6,8-dihydro-5H-imidazo[1,5-a]pyrazine-1-carboxamide]	500 to 5000
COc1ccc(-n2c(C(=O)NCc3ccccc3F)c3n(c2=O)CCN(C(=O)c2ccc(Br)c(Cl)c2)C3)cc1 [Example 181, 7-(4-bromo-3-chloro-benzoyl)-N-[(2-fluorophenyl)methyl]-2-(4-methoxyphenyl)-3-oxo-6,8-dihydro-5H-imidazo[1,5-a]pyrazine-1-carboxamide]	100 to 500
COc1ccc(-n2c(C(=O)NCc3ccc4c(c3)OCO4)c3n(c2=O)CCN(C(=O)c2ccc(Br)c(Cl)c2)C3)cc1 [Example 182, N-(1,3-benzodioxol-5-ylmethyl)-7-(4-bromo-3-chloro-benzoyl)-2-(4-methoxyphenyl)-3-oxo-6,8-dihydro-5H-imidazo[1,5-a]pyrazine-1-carboxamide]	100 to 500
COc1ccc(-n2c(C(=O)NCc3ccc(CC(N)=O)cc3)c3n(c2=O)CCN(C(=O)c2ccc(Br)c(Cl)c2)C3)cc1 [Example 183, N-[[4-(2-amino-2-oxo-ethyl)phenyl]methyl]-7-(4-bromo-3-chloro-benzoyl)-2-(4-methoxyphenyl)-3-oxo-6,8-dihydro-5H-imidazo[1,5-a]pyrazine-1-carboxamide]	500 to 5000
CC(C)Oc1ccc(-n2c(C(=O)NCc3ccccc3)c3n(c2=O)CCN(C(=O)c2ccc(Br)c(Cl)c2)C3)cc1 [Example 184, N-benzyl-7-(4-bromo-3-chloro-benzoyl)-2-(4-isopropoxyphenyl)-3-oxo-6,8-dihydro-5H-imidazo[1,5-a]pyrazine-1-carboxamide]	100 to 500
COc1ccc(CNC(=O)c2c3n(c(=O)n2-c2ccc(OC(C)C)cc2)CCN(C(=O)c2ccc(Br)c(Cl)c2)C3)cc1 [Example 185, 7-(4-bromo-3-chloro-benzoyl)-2-(4-isopropoxyphenyl)-N-[(4-methoxyphenyl)methyl]-3-oxo-6,8-dihydro-5H-imidazo[1,5-a]pyrazine-1-carboxamide]	100 to 500
CCS(=O)(=O)c1cccc(CNC(=O)c2c3n(c(=O)n2-c2ccc(OC(C)C)cc2)CCN(C(=O)c2ccc(Br)c(Cl)c2)C3)c1 [Example 186, 7-(4-bromo-3-chloro-benzoyl)-N-[(3-ethylsulfonylphenyl)methyl]-2-(4-isopropoxyphenyl)-3-oxo-6,8-dihydro-5H-imidazo[1,5-a]pyrazine-1-carboxamide]	500 to 5000
COc1ccc(-n2c(C(=O)NCc3ccccn3)c3n(c2=O)CCN(C(=O)c2ccc(Br)c(Cl)c2)C3)cc1 [Example 191, 7-(4-bromo-3-chloro-benzoyl)-2-(4-methoxyphenyl)-3-oxo-N-(2-pyridylmethyl)-6,8-dihydro-5H-imidazo[1,5-a]pyrazine-1-carboxamide]	500 to 5000
COc1ccc(-n2c(C(=O)NCc3ccc(=O)[nH]c3)c3n(c2=O)CCN(C(=O)c2ccc(Br)c(Cl)c2)C3)cc1 [Example 192, 7-(4-bromo-3-chloro-benzoyl)-2-(4-methoxyphenyl)-3-oxo-N-[(6-oxo-1H-pyridin-3-yl)methyl]-6,8-dihydro-5H-imidazo[1,5-a]pyrazine-1-carboxamide]	> 5000
O=C(NCc1ccccc1)c1c2n(c(=O)n1-c1ccccc1)CCN(C(=O)c1ccc(Br)c(Cl)c1)C2 [Example 195, N-benzyl-7-(4-bromo-3-chloro-benzoyl)-3-oxo-2-phenyl-6,8-dihydro-5H-imidazo[1,5-a]pyrazine-1-carboxamide]	500 to 5000
CCOC(=O)Cc1ccc(CNC(=O)c2c3n(c(=O)n2-c2ccc(OC)cc2)CCN(C(=O)c2ccc(Br)c(Cl)c2)C3)cc1 [Example 196, ethyl 2-[4-[[[7-(4-bromo-3-chloro-benzoyl)-2-(4-methoxyphenyl)-3-oxo-6,8-dihydro-5H-imidazo[1,5-a]pyrazine-1-carbonyl]amino]methyl]phenyl]acetate]	> 5000
CC(C)Oc1ccc(-n2c(-c3ncc(-c4ccccc4)o3)c3n(c2=O)CCN(C(=O)c2ccc(Br)c(Cl)c2)C3)cc1 [Example 197, 7-(4-bromo-3-chloro-benzoyl)-2-(4-isopropoxyphenyl)-1-(5-phenyloxazol-2-yl)-6,8-dihydro-5H-imidazo[1,5-a]pyrazin-3-one]	> 5000
COc1ccc(-n2c(C(=O)NCc3ccc(OCC(=O)O)cc3)c3n(c2=O)CCN(C(=O)c2ccc(Br)c(Cl)c2)C3)cc1 [Example 204, 2-[4-[[[7-(4-bromo-3-chloro-benzoyl)-2-(4-methoxyphenyl)-3-oxo-6,8-dihydro-5H-imidazo[1,5-a]pyrazine-1-carbonyl]amino]methyl]phenoxy]acetic acid]	> 5000
